PMC10408569, “Recruitment of hexahydroquinoline as anticancer scaffold targeting inhibition of wild and mutants EGFR (EGFR^WT, EGFR^T790M, and EGFR^L858R)” (Journal of Enzyme Inhibition and Medicinal Chemistry, 2023)

Experiments:
HL-60(TB) = assay: NCI-60 anticancer screening (SRB); assay type: cell-based; settings: Homo sapiens, leukemia, one dose 10 μM, read-out: Growth Inhibition Percentage (GI %)
K-562 = assay: NCI-60 anticancer screening (SRB); assay type: cell-based; settings: Homo sapiens, K562; K-562, leukemia; one dose 10 μM; read-out: Growth Inhibition Percentage (GI %)
MOLT-4 = assay: NCI-60 anticancer screening (SRB); assay type: cell-based; settings: Homo sapiens; MOLT-4, leukemia; one dose 10 μM; read-out: Growth Inhibition Percentage (GI %)
SR = assay: NCI-60 anticancer screening (SRB); assay type: cell-based; settings: Homo sapiens, leukemia, one dose 10 μM, read-out: Growth Inhibition Percentage (GI %)
A549/ATCC = assay: NCI-60 anticancer screening (SRB); assay type: cell-based; settings: Homo sapiens; A549/ATCC, NSC lung cancer; one dose 10 μM; read-out: Growth Inhibition Percentage (GI %)
EKVX = assay: NCI-60 anticancer screening (SRB); assay type: cell-based; settings: Homo sapiens, NSC lung cancer, one dose 10 μM, read-out: Growth Inhibition Percentage (GI %)
HOP-62 = assay: NCI-60 anticancer screening (SRB); assay type: cell-based; settings: Homo sapiens; HOP-62, NSC lung cancer; one dose 10 μM; read-out: Growth Inhibition Percentage (GI %)
HOP-92 = assay: NCI-60 anticancer screening (SRB); assay type: cell-based; settings: Homo sapiens; HOP-92, NSC lung cancer; one dose 10 μM; read-out: Growth Inhibition Percentage (GI %)
NCI-H460 = assay: NCI-60 anticancer screening (SRB); assay type: cell-based; settings: Homo sapiens; NCI-H460, NSC lung cancer; one dose 10 μM; read-out: Growth Inhibition Percentage (GI %)
HCT-15 = assay: NCI-60 anticancer screening (SRB); assay type: cell-based; settings: Homo sapiens; HCT-15, colon cancer; one dose 10 μM; read-out: Growth Inhibition Percentage (GI %)
HT29 = assay: NCI-60 anticancer screening (SRB); assay type: cell-based; settings: Homo sapiens, HT-29; HT29, colon cancer; one dose 10 μM; read-out: Growth Inhibition Percentage (GI %)
KM 12 = assay: NCI-60 anticancer screening (SRB); assay type: cell-based; settings: Homo sapiens, KM12; KM 12, colon cancer; one dose 10 μM; read-out: Growth Inhibition Percentage (GI %)
SW-620 = assay: NCI-60 anticancer screening (SRB); assay type: cell-based; settings: Homo sapiens; SW-620, colon cancer; one dose 10 μM; read-out: Growth Inhibition Percentage (GI %)
SNB-75 = assay: NCI-60 anticancer screening (SRB); assay type: cell-based; settings: Homo sapiens; SNB-75, CNS cancer; one dose 10 μM; read-out: Growth Inhibition Percentage (GI %)
MALME-3M = assay: NCI-60 anticancer screening (SRB); assay type: cell-based; settings: Homo sapiens, melanoma, one dose 10 μM, read-out: Growth Inhibition Percentage (GI %)
M14 = assay: NCI-60 anticancer screening (SRB); assay type: cell-based; settings: Homo sapiens; M14, melanoma; one dose 10 μM; read-out: Growth Inhibition Percentage (GI %)
MDA-MB-435 = assay: NCI-60 anticancer screening (SRB); assay type: cell-based; settings: Homo sapiens; MDA-MB-435, melanoma; one dose 10 μM; read-out: Growth Inhibition Percentage (GI %)
SK-MEL-28 = assay: NCI-60 anticancer screening (SRB); assay type: cell-based; settings: Homo sapiens; SK-MEL-28, melanoma; one dose 10 μM; read-out: Growth Inhibition Percentage (GI %)
SK-MEL-5 = assay: NCI-60 anticancer screening (SRB); assay type: cell-based; settings: Homo sapiens; SK-MEL-5, melanoma; one dose 10 μM; read-out: Growth Inhibition Percentage (GI %)
UACC-257 = assay: NCI-60 anticancer screening (SRB); assay type: cell-based; settings: Homo sapiens; UACC-257, melanoma; one dose 10 μM; read-out: Growth Inhibition Percentage (GI %)
UACC-62 = assay: NCI-60 anticancer screening (SRB); assay type: cell-based; settings: Homo sapiens; UACC-62, melanoma; one dose 10 μM; read-out: Growth Inhibition Percentage (GI %)
IGROV1 = assay: NCI-60 anticancer screening (SRB); assay type: cell-based; settings: Homo sapiens, IGROV-1; IGROV1, ovarian cancer; one dose 10 μM; read-out: Growth Inhibition Percentage (GI %)
OVCAR-4 = assay: NCI-60 anticancer screening (SRB); assay type: cell-based; settings: Homo sapiens; OVCAR-4, ovarian cancer; one dose 10 μM; read-out: Growth Inhibition Percentage (GI %)
OVCAR-8 = assay: NCI-60 anticancer screening (SRB); assay type: cell-based; settings: Homo sapiens; OVCAR-8, ovarian cancer; one dose 10 μM; read-out: Growth Inhibition Percentage (GI %)
SK-OV-3 = assay: NCI-60 anticancer screening (SRB); assay type: cell-based; settings: Homo sapiens; SK-OV-3, ovarian cancer; one dose 10 μM; read-out: Growth Inhibition Percentage (GI %)
786-0 = assay: NCI-60 anticancer screening (SRB); assay type: cell-based; settings: Homo sapiens; 786-0, renal cancer; one dose 10 μM; read-out: Growth Inhibition Percentage (GI %)
A498 = assay: NCI-60 anticancer screening (SRB); assay type: cell-based; settings: Homo sapiens; A498, renal cancer; one dose 10 μM; read-out: Growth Inhibition Percentage (GI %)
CAKI-1 = assay: NCI-60 anticancer screening (SRB); assay type: cell-based; settings: Homo sapiens; CAKI-1, renal cancer; one dose 10 μM; read-out: Growth Inhibition Percentage (GI %)
PC-3 = assay: NCI-60 anticancer screening (SRB); assay type: cell-based; settings: Homo sapiens; PC-3, prostate cancer; one dose 10 μM; read-out: Growth Inhibition Percentage (GI %)
MDA-MB-231 = assay: NCI-60 anticancer screening (SRB); assay type: cell-based; settings: Homo sapiens; MDA-MB-231, breast cancer; one dose 10 μM; read-out: Growth Inhibition Percentage (GI %)
T-47D = assay: NCI-60 anticancer screening (SRB); assay type: cell-based; settings: Homo sapiens, T47D, breast cancer, one dose 10 μM, read-out: Growth Inhibition Percentage (GI %)
NCI 60 cancer cell lines = assay: NCI-60 anticancer screening (SRB), whole panel; assay type: cell-based, human; settings: mean across the NCI-60 panel; one dose 10 μM

Structure (SMILES)	inhibition at 10 µM (HL-60(TB)) [%]	inhibition at 10 µM (K-562) [%]	inhibition at 10 µM (MOLT-4) [%]	inhibition at 10 µM (SR) [%]	inhibition at 10 µM (A549/ATCC) [%]	inhibition at 10 µM (EKVX) [%]	inhibition at 10 µM (HOP-62) [%]	inhibition at 10 µM (HOP-92) [%]	inhibition at 10 µM (NCI-H460) [%]	inhibition at 10 µM (HCT-15) [%]	inhibition at 10 µM (HT29) [%]	inhibition at 10 µM (KM 12) [%]	inhibition at 10 µM (SW-620) [%]	inhibition at 10 µM (SNB-75) [%]	inhibition at 10 µM (MALME-3M) [%]	inhibition at 10 µM (M14) [%]	inhibition at 10 µM (MDA-MB-435) [%]	inhibition at 10 µM (SK-MEL-28) [%]	inhibition at 10 µM (SK-MEL-5) [%]	inhibition at 10 µM (UACC-257) [%]	further results
CCOC(=O)C1=C(N)N(c2ccccc2)C2=C(C(=O)CC(C)(C)C2)C1c1cccnc1 (racemic) [12d]	< 10	< 10	< 10	< 10	< 10	< 10	< 10	< 10	< 10	< 10	< 10	< 10	< 10	17	< 10	< 10	< 10	< 10	< 10	< 10	inhibition at 10 µM (UACC-62): 12%; inhibition at 10 µM (IGROV1): < 10%; inhibition at 10 µM (OVCAR-4): < 10%; inhibition at 10 µM (OVCAR-8): < 10%; inhibition at 10 µM (SK-OV-3): < 10%; inhibition at 10 µM (786-0): < 10%; inhibition at 10 µM (A498): < 10%; inhibition at 10 µM (CAKI-1): < 10%; inhibition at 10 µM (PC-3): < 10%; inhibition at 10 µM (MDA-MB-231): < 10%; inhibition at 10 µM (T-47D): < 10%; GI % mean (NCI 60 cancer cell lines): - ((-) = GI % mean less than 10); melting point: 215 to 217 °C
CCOC(=O)C1=C(N)N(c2ccc(C)cc2)C2=C(C(=O)CC(C)(C)C2)C1c1cccnc1 (racemic) [12e, (±)-Ethyl 2-amino-7,7-dimethyl-1–(4-methylphenyl)-5-oxo-1-phenyl-4-(pyrdin-3-yl)-1,4,5,6,7,8-hexahydroquinoline-3-carboxylate]	< 10	< 10	< 10	< 10	< 10	< 10	< 10	< 10	< 10	< 10	< 10	< 10	< 10	14	< 10	< 10	< 10	< 10	< 10	< 10	inhibition at 10 µM (UACC-62): 14%; inhibition at 10 µM (IGROV1): < 10%; inhibition at 10 µM (OVCAR-4): < 10%; inhibition at 10 µM (OVCAR-8): < 10%; inhibition at 10 µM (SK-OV-3): < 10%; inhibition at 10 µM (786-0): < 10%; inhibition at 10 µM (A498): < 10%; inhibition at 10 µM (CAKI-1): < 10%; inhibition at 10 µM (PC-3): 12%; inhibition at 10 µM (MDA-MB-231): < 10%; inhibition at 10 µM (T-47D): < 10%; GI % mean (NCI 60 cancer cell lines): - ((-) = GI % mean less than 10); melting point: 261 to 263 °C
